Test results from patent US6340705B1, “Use of α-linolenic acid metabolites for treatment or prevention of cancer” (Monsanto Technology, LLC, priority 1999, dated 2002).
Marks after values point to notes of the source that are not given here.

Assays:
[1] = system: Min/+ mouse model of intestinal cancer; experiment: Intestinal polyp formation in the Min/+ mouse model of intestinal cancer; type: in vivo; set-up: Avg. large intestine tumor size: unit not given here; conditions: Min/+ mice; for Total small intestine tumors/group / Avg. large intestine tumors/mouse / Avg. small intestine tumor size / Avg. small intestine tumors/mouse / Avg. large intestine tumor size / Avg. large intestine tumor load / Avg. small intestine tumor load / Total Avg. overall tumor load / Total Avg. overall tumor size / Total Avg. tumors/mouse: 10 g/day human equivalent dose (3% wt.) or sulindac 320 ppm; for Total small intestine tumors/group / Avg. large intestine tumors/mouse / Avg. small intestine tumor size / Avg. small intestine tumors/mouse / Avg. large intestine tumor size / Avg. large intestine tumor load / Avg. small intestine tumor load / Total large intestine tumors/group / Total large intestine tumors/group, figure in brackets (animals bearing tumors/animals in group) / Total Avg. overall tumor load / Total Avg. overall tumor size / Total Avg. tumors/mouse: seven weeks; for Avg. large intestine tumors/mouse / Avg. small intestine tumor size / Avg. small intestine tumors/mouse / Avg. large intestine tumor size / Avg. large intestine tumor load / Avg. small intestine tumor load / Total Avg. overall tumor load / Total Avg. overall tumor size / Total Avg. tumors/mouse: mean ± SEM; for Avg. large intestine tumor size: only animals bearing colonic tumors; for Avg. large intestine tumor load / Avg. small intestine tumor load: tumor number × tumor size; for Total large intestine tumors/group / Total large intestine tumors/group, figure in brackets (animals bearing tumors/animals in group): fatty acid ethyl ester 10 g/day human equivalent dose (3% wt.) in US17 diet or sulindac 320 ppm; for Total Avg. overall tumor load / Total Avg. overall tumor size / Total Avg. tumors/mouse: large and small intestine; for effect on polyp number relative to the US17 control / effectiveness in inhibiting polyp formation and development in the large intestine: 10 g/day human equivalent dose; for effect on polyp number relative to the US17 control: differences not significant
Procedure: The efficacy of select n-3 and n-6 polyunsaturated fatty acids was evaluated in the Min/+ mouse model of intestinal cancer. The following fatty acid ethyl esters were tested for their effect on intestinal polyp formation: 1) ALA-EE; 2) SDA-EE; 2) EPA-EE; 4) DHA-EE; 5) GLA-EE ([…], 18:3 n-6); and 6) CLA-EE (conjugated linoleic acid; c9t11-18:2 (77%)+c9c11-18:2 (18%)+other isomers (5%)).
These fatty acid ethyl esters were added to the US17 diet to provide 10 g/day human equivalent dose (3% wt.). The NSAID, sulindac (320 ppm), served as the positive control. In order to maintain a 17% fat (37 en%) content in the US17 diet, oleic acid (18:1 n-9) was removed from the US17 diet in an amount equal to the amount of the fatty acid ethyl ester that was added. Mice were received at approximately five weeks of age and were fed the test diets upon receipt. After seven weeks on the respective test diet, the mice were sacrificed and the intestinal polyps were counted and measured.

HepG2 cells [2] = experiment: Uptake of 14C-ALA, 14C-SDA and 14C-EPA by HepG2 cells; type: in vitro ADME; conditions: for radiolabeled fatty acid taken up by the cells: 20 μM complexed to fatty acid free BSA, within the first six hours of incubation; for uptake by HepG2 cells, comparison (FIG. 1): 20 μM, 6, 24 and 48 hours
Procedure: To a culture medium containing HepG2 cells was added 20 μM ^14C-ALA, ^14C-SDA or ^14C-EPA complexed to fatty acid free BSA. The amount of ^14C-ALA, ^14C-SDA or ^14-EPA EPA Taken up by the HepG2 cells was measured 6 hours, 24 hours and 48 hours after addition of the fatty acid. A scintillation counter was used to measure the total amount of radioactivity in the HepG2 cells and the amount remaining in the medium.

[3] = Metabolism in mice, time course analysis using radiolabeled fatty acids (mouse liver); conditions: mice on US17 diet, intraperitoneal 10 μCi, at 24 hours
Procedure: The method used was a time course study using ^14C-labeled fatty acids.
Mice were fed the US17 diet for a period of one month in order to achieve steady-state fatty acid metabolism. After achieving steady-state fatty acid metabolism, the mice were administered an intraperitoneal injection containing 10 μCi of ^14C-ALA, ^14C-SDA, ^14C-EPA OR ^14C-DHA. Mice were sacrificed 3 hours, 8 hours or 24 hours post-injection, and the total amount of ^14C-EPA, ^14C-DPA n-3 and ^14C-DHA was measured by argentation thin layer chromatography followed by direct electronic autoradiography, as described in Example 3.

[4] = set-up: species or system Mice; conditions: mouse, in vivo
Source text: The method used was a non-radioactive, dose response, metabolic end-point study.
(§1) Mice were fed a US17 diet containing α-linolenic acid ethyl ester (ALA-EE), stearidonic acid ethyl ester (SDA-EE), eicosapentaenoic acid ethyl ester (EPA-EE), or docosahexaenoic acid ethyl ester (DHA-EE) in an amount equivalent to a human western diet containing 1, 3 or 10 g/day of the fatty acid (g/day human equivalent dose). In order to maintain a 17% fat (37 en %) content in the US17 diet, oleic acid (18:1 n-9), as an oleic acid cassette, was removed from the US17 diet in an amount equal to the amount of fatty acid ester that was added. Oleic acid was selected as the replacement fatty acid because literature reports indicate that oleic acid is neutral with respect to inflammation and cancer.
(§2) After one month on the respective US17-based diets, the mice were sacrificed and the fatty acid composition of each of their livers was analyzed by gas chromatography. The results of these analyses are pressured in FIG. 8.

[5] = type: in vivo, rats; conditions: rat, in vivo
Source text: as §1, §2
The method used was as described in Example 6 except that rats were used in place of mice.

HepG2 cells [6] = experiment: Metabolism of radiolabeled fatty acids to long chain n-3 PUFAs (EPA, DHA) in HepG2 cells; type: in vitro ADME; conditions: 20 μM
Procedure: HepG2 cells were allowed to take up ^14C-ALA or ^14C-SDA as described in Example 2. The total amount of ^14C-EPA, ^14C-DPA and ^14C-DHA present in the HepG2 cells was measured 6 hours, 24 hours and 48 hours after addition of the fatty acid by argentation thin layer chromatography (TLC). The amount of each fatty acid present as a band on the TLC plate was quantified by electronic autoradiography using an Instant Imager supplied by Packard (Meriden, Conn.).
HepG2 cells were allowed to take up ^14C-ALA, ^14C-SDA or ^14C-EPA as described in Example 2. The amount of ^14C-EPA and ^14C-DHA present in the HepG2 cells was measured 6 hours, 24 hours and 48 hours after addition of the fatty acids by argentation thin layer chromatography (TLC) as described in Example 3. The amount of ^14C-EPA and ^14C-DHA present as bands on the TLC plate were quantified by electronic autoradiography using an Instant Imager as described in Example 3.

Compound	Total small intestine tumors/group [1]	Avg. large intestine tumors/mouse [1]	Avg. small intestine tumor size [1]	Avg. small intestine tumors/mouse [1]	Avg. large intestine tumor size [1]	Avg. large intestine tumor load [1]	Avg. small intestine tumor load [1]	Total large intestine tumors/group [1]	Total large intestine tumors/group, figure in brackets (animals bearing tumors/animals in group) [1]	Total Avg. overall tumor load [1]	Total Avg. overall tumor size [1]	Total Avg. tumors/mouse [1]	radiolabeled fatty acid taken up by the cells (HepG2 cells [2])	uptake by HepG2 cells, comparison (FIG. 1) (HepG2 cells [2])	effect on polyp number relative to the US17 control [1]	effectiveness in inhibiting polyp formation and development in the large intestine [1]	order of metabolism to 14C-EPA + 14C-DPA n-3 + 14C-DHA in mouse liver (FIG. 6) [3]	sum of long chain n-3 PUFAs (EPA+DPA n-3+DHA) in liver tissue, rank order of dose dependent increase (FIG. 8) [4]	sum of long chain n-3 PUFAs (EPA+DPA n-3, and DHA) in liver tissue, rank order of dose dependent accumulation (FIG. 9) [5]	amount of EPA that remained after incubation with EPA itself (HepG2 cells [6]) [%]
CC1=C(CC(=O)O)c2cc(F)ccc2/C1=C\c1ccc([S+](C)[O-])cc1 (stereo not drawn) [Sulindac, sulindac]	29	0.2 ± 0.2^cd	1.25 ± 0.29^ab mm	3.2 ± 1.1^d	2.00 ± 0.00^ab	0.44 ± 0.29^cd mm	3.64 ± 1.12^d mm	2	2/9	3.64 ± 1.27^d mm	1.04 ± 0.08^d mm	3.4 ± 1.2^d								
CC/C=C\C/C=C\C/C=C\CCCCCCCC(=O)O [ALA, α-linolenic acid]													Approximately 95%	taken up equally						
CCCCC/C=C\C/C=C\C/C=C\CCCCC(=O)O [GLA, γ-linolenic acid]	421	1.2 ± 0.4^abc	1.30 ± 0.04^ab mm	46.8 ± 7.1^a	2.57 ± 0.30^ab	3.25 ± 1.34^abc mm	61.62 ± 10.36^a mm	11	6/9	64.84 ± 11.05^a mm	1.33 ± 0.04^a mm	48.0 ± 7.4^a			appeared to increase polyp number					
α-linolenic acid [ALA]	364	0.8 ± 0.3^bcd	1.23 ± 0.04^ab mm	36.4 ± 6.3^ab	2.75 ± 0.46^ab	2.15 ± 0.83^bcd mm	45.67 ± 8.66^ab mm	8	5/10	45.97 ± 8.88^ab mm	1.21 ± 0.03^bc mm	37.2 ± 6.6^ab				marginally efficacious				
CC/C=C\C/C=C\C/C=C\C/C=C\C/C=C\C/C=C\CCC(=O)O [DHA, docosahexaenoic acid]	280	1.8 ± 0.4^a	1.16 ± 0.04^ab mm	28.0 ± 5.6^bc	3.01 ± 0.20^a	5.06 ± 0.85^a mm	33.15 ± 8.09^bc mm	18		35.60 ± 7.10^bc mm	1.20 ± 0.04^bc mm	29.8 ± 5.9^bc				no efficacy	DHA=EPA>SDA>ALA			
CC/C=C\C/C=C\C/C=C\CCCCCCCC(=O)OCC [ALA-EE, α-linolenic acid ethyl ester]																		DHA-EE>EPA-EE>SDA-EE>ALA-EE	DHA-EE>EPA-EE>SDA-EE>ALA-EE	
conjugated linoleic acid [CLA]	409	1.1 ± 0.4^abcd	1.24 ± 0.03^ab mm	45.4 ± 8.2^a	3.03 ± 0.52^a	3.47 ± 1.29^ab mm	57.84 ± 11.70^a mm	10	5/9	61.30 ± 12.41^a mm	1.28 ± 0.04^ab mm	46.6 ± 8.3^a			appeared to increase polyp number					
CC/C=C\C/C=C\C/C=C\C/C=C\C/C=C\CCCC(=O)OCC [EPA-EE, eicosapentaenoic acid ethyl ester]																		DHA-EE>EPA-EE>SDA-EE>ALA-EE	DHA-EE>EPA-EE>SDA-EE>ALA-EE	
CC/C=C\C/C=C\C/C=C\C/C=C\C/C=C\C/C=C\CCC(=O)OCC [DHA-EE, docosahexaenoic acid ethyl ester]																		DHA-EE>EPA-EE>SDA-EE>ALA-EE	DHA-EE>EPA-EE>SDA-EE>ALA-EE	
CC/C=C\C/C=C\C/C=C\C/C=C\C/C=C\CCCC(=O)O [EPA, eicosapentaenoic acid]	176	0.9 ± 0.3^abcd	1.05 ± 0.03^b mm	17.6 ± 2.2^cd	2.48 ± 0.39^ab	2.25 ± 0.75^bcd mm		9		20.28 ± 2.23^cd mm	1.11 ± 0.04^cd mm	18.5 ± 2.2^a	Approximately 95%	taken up equally						63
CC/C=C\C/C=C\C/C=C\C/C=C\CCCCC(=O)OCC [SDA-EE, stearidonic acid ethyl ester]																		DHA-EE>EPA-EE>SDA-EE>ALA-EE	DHA-EE>EPA-EE>SDA-EE>ALA-EE	
